# Molecular target: T1, human Bradykinin B1 receptor (Homo sapiens, UniProt P46663)
# T1 construct: host or cells: CHO-K1
# T1 sequence (P46663 1-353): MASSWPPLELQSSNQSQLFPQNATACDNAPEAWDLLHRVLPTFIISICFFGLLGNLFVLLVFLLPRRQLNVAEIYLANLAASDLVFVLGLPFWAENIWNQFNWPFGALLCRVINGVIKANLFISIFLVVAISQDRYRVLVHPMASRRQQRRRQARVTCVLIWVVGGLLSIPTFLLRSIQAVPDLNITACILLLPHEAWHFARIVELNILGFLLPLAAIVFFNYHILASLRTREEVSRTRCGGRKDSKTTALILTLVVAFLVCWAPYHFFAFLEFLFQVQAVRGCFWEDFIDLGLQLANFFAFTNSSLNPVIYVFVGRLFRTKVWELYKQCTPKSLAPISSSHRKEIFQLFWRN
# Test: Calcium flux Assay (FLIPR) with recombinant CHO-K1 cells expressing human Bradykinin B1 receptor, in presence (hB1 IC50) or absence (hB1 free IC50) of 0.1% BSA
# Assay type: cell-based
# Details: in absence of 0.1% BSA, read-out: hB1 free IC50
# Experimental: The potency to inhibit the Bradykinin B1 receptor was determined for the compounds of this invention in a cell-based fluorescent calcium-mobilisation assay. The assay measures the ability of test compounds to inhibit Bradykinin B1 receptor agonist-induced increase of intracellular free Ca^2+ in the cell line expressing Bradykinin B1 receptor. […] The change of the intracellular Ca^2+ concentration is monitored with a fluorescent plate reader FLIPR TETRA® (Molecular Devices).
# Calcium flux Assays (FLIPR) with cells expressing human Bradykinin B1 receptor (hB1)
# CHO-K1 cell line expressing human Bradykinin B1 receptor was purchased from Euroscreen (Gosselies, Belgium, with reference name hB1-D1). The cells were grown in Nutrient Mixture Ham's F12 (Sigma) containing 10% Foetal bovine serum (Sigma) and 400 μg/mL G418 (Sigma), 5 μg/mL puromycim (Sigma). […]
# Cells were seeded in a volume of 50 μL in medium without antibiotics and incubated overnight in a humidified atmosphere with 5% CO2 at 37° C. […] The calcium indicator loaded cells were incubated at 37° C. for 2 hrs. Extracellular dye was then removed and each well was filled with 45 μL of assay buffer. Cell plates were kept in dark until used. Compound examples were assayed at 8 concentrations in triplicate. Serial 10-fold dilutions in 100% DMSO were made at a 100-times higher concentration than the final concentration, and then diluted 1:10 in assay buffer. 5 μL of each diluted compound was added to the well of cell plates (yielding final concentration with 1% DMSO), and incubated for 30 min at 28° C. before the addition of Bradykinin B1 receptor agonist on the FLIPR instrument.
# A peptide antagonist Lys-(Des-Arg-Leu)-Bradykinin (Bachem, Brackley) at 20 µM was used to determine the full inhibition as control.
# Peak fluorescence was used to determine the response to agonist obtained at each concentration of compound examples by the following equation:
# % Response=100*(RFU(compound)−RFU(control))/(RFU(DMSO)−RFU(control)) • RFU means relative fluorescence units. • Control means full inhibition by the peptide antagonist Lys-(Des-Arg-Leu)-Bradykinin at 20 µM.
# The response values were plotted against the logarithm of the compound concentrations. The compound examples were tested in triplicates per plate and mean values were plotted in Excel XLfit to determine IC50 values, percentage of maximal inhibition and the Hill slopes.
row,Compound,IC50
1,"O=C(Nc1ccc(-c2ccc(C(F)F)nc2)c(-c2nnn[nH]2)c1)C1(c2ccc(Cl)cc2)CC1 [Example 269, 1-(4-chlorophenyl)-N-{4-[6-(difluoromethyl)pyridin-3-yl]-3-(1H-tetrazol-5-yl)phenyl}cyclopro-panecarboxa-mide]",0.0132 µM
2,"Cc1ccc(C2(C(=O)Nc3ccc(-n4cnc(C(C)(C)C)c4)c(-c4nnn[nH]4)c3)CC2)c(F)c1 [Example 402, N-[4-(4-tert-butyl-1H-imidazol-1-yl)-3-(1H-tetrazol-5-yl)phenyl]-1-(2-fluoro-4-methylphenyl)cy-clopropanecar-boxamide]",0.0253 µM
3,"O=C(Nc1ccc(-c2cc3c(Cl)nccc3o2)c(-c2nnn[nH]2)c1)C1(c2cccc(Cl)c2)CC1 [Example 332, N-[4-(4-chlorofuro[3,2-c]pyridin-2-yl)-3-(1H-tetrazol-5-yl)phenyl]-1-(3-chlorophenyl)cy-clopropanecarbox-amide]",0.191 µM
4,"O=C(Nc1ccc(-n2cnc(C(F)(F)F)c2)c(-c2nnn[nH]2)c1)C1(c2ccc(C(F)(F)F)cc2F)CC1 [Example 347, 1-[2-Fluoro-4-(trifluoromethyl)phenyl]-N-{3-(1H-tetrazol-5-yl)-4-[4-(trifluoromethyl)-1H-imidazol-1-yl]phenyl}cyclopro-panecarboxa-mide]",0.0966 µM
5,"O=C(Nc1ccc(-c2ccnc(C(F)(F)F)c2)c(-c2nnn[nH]2)c1)C1(c2ccc(F)cc2F)CC1 [Example 178, 1-(2,4-difluorophenyl)-N-{3-(1H-tetrazol-5-yl)-4-[2-(trifluoromethyl)pyridin-4-yl]phenyl} cyclopropane-carboxamide]",0.287 µM
6,"O=C(Nc1ccc(-n2ccc(C(F)(F)F)n2)c(-c2nnn[nH]2)c1)C1(c2cccc(Cl)c2)CC1 [Example 354, 1-(3-Chlorophenyl)-N-{3-(1H-tetrazol-5-yl)-4-[3-(trifluoromethyl)-1H-pyrazol-1-yl]phenyl}cyclopro-panecarboxa-mide]",1.88 µM
7,"CCOc1ncc(-c2ccc(NC(=O)C3(c4cccc(Cl)c4F)CC3)cc2-c2nnn[nH]2)cc1C(F)(F)F [Example 159, 1-(3-chloro-2-fluorophenyl)-N-{4-[6-ethoxy-5-(trifluoromethyl)pyridin-3-yl]-3-(1H-tetrazol-5-yl)phenyl} cyclopropane-carboxamide]",0.0403 µM
8,O=C(Nc1ccc(-c2cnc(NC3CC3)nc2)c(-c2nnn[nH]2)c1)C1(c2cccc(Cl)c2)CC1 [Example 185],0.251 µM
9,"O=C(Nc1ccc(-c2cc3ccccc3s2)c(-c2nnn[nH]2)c1)C1(c2ccc(F)c(F)c2)CC1 [Example 385, N-[4-(1-benzothiophen-2-yl)-3-(1H-tetrazol-5-yl)phenyl]-1-(3,4-difluorophenyl)cyclo-propanecar-boxamide]",0.0547 µM
10,O=C(Nc1ccc(-c2ccc(C(F)(F)F)nc2)c(-c2nnn[nH]2)c1F)C1(c2ccc(C(F)(F)F)cc2F)CC1 [Example 300],0.0581 µM
11,"O=C(Nc1ccc(-n2cc(C(F)(F)F)cn2)c(-c2nnn[nH]2)c1)C1(c2ccc(F)c(F)c2)CC1 [Example 351, 1-(3,4-Difluorophenyl)-N-{3-(1H-tetrazol-5-yl)-4-[4-(trifluoromethyl)-1H-pyrazol-1-yl]phenyl}cyclopro-panecarboxa-mide]",1.06 µM
12,"CC(C)c1cnn(-c2ccc(NC(=O)C3(c4ccc(OC(F)(F)F)cc4F)CC3)cc2-c2nnn[nH]2)c1 [Example 413, 1-[2-fluoro-4-(trifluoromethoxy)phenyl]-N-[4-(4-isopropyl-1H-pyrazol-1-yl)-3-(1H-tetrazol-5-yl)phenyl]cyclopro-panecarboxa-mide]",0.00584 µM
13,"CCc1ccn(-c2ccc(NC(=O)C3(c4ccc(C(F)(F)F)cc4F)CC3)cc2-c2nnn[nH]2)n1 [Example 372, N-[4-(3-Ethyl-1H-pyrazol-1-yl)-3-(1H-tetrazol-5-yl)phenyl]-1-[2-fluoro-4-(trifluoromethyl)phenyl]cyclopro-panecarboxamide]",0.0311 µM
14,"O=C(Nc1ccc(-c2ccc(C(F)(F)F)nc2)c(-c2nnn[nH]2)c1)C1(c2ccc(C(F)(F)F)cc2Cl)CC1 [Example 292, 1-[2-chloro-4-(trifluoromethyl)phenyl]-N-{3-(1H-tetrazol-5-yl)-4-[6-(trifluoromethyl)pyridin-3-yl]phenyl}cyclopro-panecarboxa-mide]",0.00785 µM

# Same assay, conditions: in presence of 0.1% BSA, read-out: hB1 IC50
row,Compound,IC50
1,"COc1ccc(-c2ccc(NC(=O)C3(c4cccc(Cl)c4)CC3)cc2-c2nnn[nH]2)cc1C [Example 116, 1-(3-chlorophenyl)-N-[4′-methoxy-3′-methyl-2-(1H-tetrazol-5-yl)biphenyl-4-yl]cyclopropane carboxamide]",0.177 µM
2,"O=C(Nc1ccc(-c2cc3c(Cl)nccc3o2)c(-c2nnn[nH]2)c1)C1(c2cccc(Cl)c2)CC1 [Example 332, N-[4-(4-chlorofuro[3,2-c]pyridin-2-yl)-3-(1H-tetrazol-5-yl)phenyl]-1-(3-chlorophenyl)cy-clopropanecarbox-amide]",0.274 µM
3,"CCOc1ccc(-c2cc(C)c(NC(=O)C3(c4cccc(Cl)c4)CC3)cc2-c2nnn[nH]2)cc1OC [Example 249, 1-(3-Chlorophenyl)-N-[4′-ethoxy-3′-methoxy-5-methyl-2-(1H-tetrazol-5-yl)biphenyl-4-yl]cyclopropane carboxamide]",1.76 µM
4,COc1cc(F)cc(C2(C(=O)Nc3ccc(-c4ccc(OC)c(OC)c4)c(-c4nnn[nH]4)c3)CC2)c1 [Example 32],0.0416 µM
5,"CCOc1ncc(-c2ccc(NC(=O)C3(c4cccc(Cl)c4F)CC3)cc2-c2nnn[nH]2)cc1C(F)(F)F [Example 159, 1-(3-chloro-2-fluorophenyl)-N-{4-[6-ethoxy-5-(trifluoromethyl)pyridin-3-yl]-3-(1H-tetrazol-5-yl)phenyl} cyclopropane-carboxamide]",0.585 µM
6,"COc1ccc(-c2ccc(NC(=O)C3(Cc4ccccc4)CC3)cc2-c2nnn[nH]2)cc1OC [Example 53, 1-benzyl-N-[3′,4′-dimethoxy-2-(1H-tetrazol-5-yl)biphenyl-4-yl]cyclopropane carboxamide]",0.514 µM
7,"COc1ccc(-c2ccc(NC(=O)C3(c4cccc(Cl)c4)CC3)cc2-c2nnn[nH]2)c(C)c1 [Example 118, 1-(3-chlorophenyl)-N-[4′-methoxy-2′-methyl-2-(1H-tetrazol-5-yl)biphenyl-4-yl]cyclopropane carboxamide]",1.82 µM
8,"COc1ccc(-c2c(F)cc(NC(=O)C3(c4ccc(F)cc4F)CC3)cc2-c2nnn[nH]2)cc1OC [Example 235, 1-(2,4-Difluorophenyl)-N-[2-fluoro-3′,4′-dimethoxy-6-(1H-tetrazol-5-yl)biphenyl-4-yl]cyclopropane carboxamide]",0.0536 µM
9,"COc1ccc(-c2ccc(NC(=O)C3(c4c(F)cccc4F)CC3)cc2-c2nnn[nH]2)cc1OC [Example 29, 1-(2,6-difluorophenyl)-N-[3′,4′-dimethoxy-2-(1H-tetrazol-5-yl)biphenyl-4-yl]cyclopropane carboxamide]",0.167 µM
10,COc1ccc(-c2ccc(NC(=O)C3(c4ccccn4)CC3)cc2-c2nnn[nH]2)cc1OC [Example 9],0.66 µM
11,"COc1ccc(-c2ccc(NC(=O)C(C)(C)c3cccc(Cl)c3)cc2-c2nnn[nH]2)cc1OC [Example 61, 2-(3-chlorophenyl)-N-[3′,4′-dimethoxy-2-(1H-tetrazol-5-yl)biphenyl-4-yl]-2-methyl-propanamide]",2.05 µM
12,"O=C(Nc1cc(-c2nnn[nH]2)c(-c2ccc(C(F)(F)F)nc2)cc1O)C1(c2ccc(Cl)cc2F)CC1 [Example 221, 1-(4-chloro-2-fluorophenyl)-N-{2-hydroxy-5-(1H-tetrazol-5-yl)-4-[6-(trifluoromethyl)pyridin-3-yl]phenyl} cyclopropane-carboxamide]",0.16 µM
13,"COc1ccc(-c2ccc(NC(=O)C3(c4cccc(Cl)c4)CC3)cc2-c2nnn[nH]2)cc1F [Example 315, 1-(3-chlorophenyl)-N-[3′-fluoro-4′-methoxy-2-(1H-tetrazol-5-yl)biphenyl-4-yl]cyclopropane-carboxamide]",0.235 µM
14,"COc1ccc(-c2ccc(NC(=O)C3(c4cccc(C(C)(C)C)c4)CC3)cc2-c2nnn[nH]2)cc1OC [Example 42, 1-(3-tert-butylphenyl)-N-[3′,4′-dimethoxy-2-(1H-tetrazol-5-yl)biphenyl-4-yl]cyclopropane carboxamide]",0.746 µM
15,"CCOc1ccc(-c2ccc(NC(=O)C(C)(C)c3cccc(Cl)c3)cc2-c2nnn[nH]2)cn1 [Example 67, 2-(3-chlorophenyl)-N-[4-(6-ethoxypyridin-3-yl)-3-(1H-tetrazol-5-yl)phenyl]-2-methyl-propanamide]",0.394 µM
16,"COc1ccc(-c2ccc(NC(=O)C3(c4ccc(C)cc4)CC3)cc2-c2nnn[nH]2)cc1OC [Example 45, N-[3′,4′-dimethoxy-2-(1H-tetrazol-5-yl)biphenyl-4-yl]-1-(4-methylphenyl) cyclopropane-carboxamide]",0.0498 µM

# Source: US20210317092A1 (BAYER PHARMA AKTIENGESELLSCHAFT, priority 2016, published 2021)
